System: CD5L−/− Th17 cells
Assay: Nanostring nCounter Th17 codeset (312 genes), PUFA- or control-treated CD5L−/− Th17 cells
Type: cell-based, mouse
Details: CD5LKO Th17 cells + PUFA
From the text: Applicants studied the contribution of lipid saturation to Th17 cell pathogenicity. […] Applicants analyzed the expression of a 312 gene signature of Th17 cell differentiation and function (Yosef et al., 2013) in SFA- or control-treated WT Th17 cells and in PUFA- or control-treated CD5L−/− Th17 cells differentiated with TGF-81+IL-6.
T cell differentiation culture. Naïve CD4+CD44−CD62L+CD25− T cells or Effector memory CD4+CD44+CD62L− were sorted using BD FACSAria sorter and activated with plate-bound anti-CD3 and anti-CD28 antibodies (both at 2 μg/ml) in the presence of cytokines at a concentration of 2.5×10^5 cells/ml. For Th17 differentiation: 2 ng/ml of rhTGFβ1, 2 ng/ml of rhTGFβ3, 25 ng/ml rmIL-6, 20 ng/ml rmIL-18 (all from Miltenyi Biotec) and 20 ng/ml rmIL-23 (R & D systems) were used at various combinations as specified in figures. For Th1 differentiation, 20 ng/ml rmIL-12 (R & D systems); for Th2 differentiation 20 ng/ml rmIL-4 (Miltenyi Biotec); for iTreg differentiation, 2.5 ng/ml of rhTGFβ1 were used (Miltenyi Biotec). For differentiation experiments, cells were harvested at 48 hours. For restimulation experiments, cells were differentiated for 48 hours and resuspended in fresh media with no additional cytokines for 48-72 hours. Cells were re-stimulated with PMA/ionomycin for four hours before analysis for cytokines by intracellular cytokine staining. For experiments with exogenous fatty acid, fatty acids were purchased and resuspended first with serum-free media containing BSA prior being added to culture.
Nanostring nCounter. Nanostring nCounter platform (NanoString Technologies) is used to measure the number of RNA transcripts in RNA samples (FIG. 16I, FIG. 18D). A codeset containing 312 signature genes of Th17 cell differentiation and function as well as 4 additional house-keeping genes were custom-made (Yosef et al., 2013) and used in these experiments. Experimental procedures as detailed by the manufacturer is strictly followed.

Structure (SMILES): CCCCC/C=C\C/C=C\C/C=C\C/C=C\CCCC(=O)O [PUFA, arachidonic acid]
- ATF2 expression (Nanostring), normalized to WT: 0.89
- Abcg2 expression (Nanostring), normalized to WT: 1.20
- Acvr2a expression (Nanostring), normalized to WT: 1.32
- Ahr expression (Nanostring), normalized to WT: 1.08
- Arl5a expression (Nanostring), normalized to WT: 1.33
- Atf4 expression (Nanostring), normalized to WT: 0.73
- BC021614 expression (Nanostring), normalized to WT: 1.04
- Bcl2l11 expression (Nanostring), normalized to WT: 0.71
- Bcl3 expression (Nanostring), normalized to WT: 1.13
- Bcl11b expression (Nanostring), normalized to WT: 1.03
- Bhlhe40 expression (Nanostring), normalized to WT: 0.70
- Casp3 expression (Nanostring), normalized to WT: 0.71
- Casp4 expression (Nanostring), normalized to WT: 1.52
- Ccl1 expression (Nanostring), normalized to WT: 0.67
- Ccl20 expression (Nanostring), normalized to WT: 0.84
- Ccr4 expression (Nanostring), normalized to WT: 1.69
- Ccr8 expression (Nanostring), normalized to WT: 0.71
- Cd9 expression (Nanostring), normalized to WT: 1.27
- Cd70 expression (Nanostring), normalized to WT: 0.77
- Cd83 expression (Nanostring), normalized to WT: 0.88
- Cd86 expression (Nanostring), normalized to WT: 1.73
- Cd247 expression (Nanostring), normalized to WT: 1.32
- Clcf1 expression (Nanostring), normalized to WT: 1.25
- Csf2 expression (Nanostring), normalized to WT: 1.20
- Ctla4 expression (Nanostring), normalized to WT: 1.63
- Cxcl10 expression (Nanostring), normalized to WT: 1.64
- Cxcr3 expression (Nanostring), normalized to WT: 1.44
- Cxcr4 expression (Nanostring), normalized to WT: 0.87
- Cxcr5 expression (Nanostring), normalized to WT: 1.42
- EBF1 expression (Nanostring), normalized to WT: 1.64
- Egr2 expression (Nanostring), normalized to WT: 1.64
- Elk3 expression (Nanostring), normalized to WT: 1.04
- Ercc5 expression (Nanostring), normalized to WT: 0.66
- Etv6 expression (Nanostring), normalized to WT: 1.70
- Faim3 expression (Nanostring), normalized to WT: 1.31
- Fli1 expression (Nanostring), normalized to WT: 1.35
- Flna expression (Nanostring), normalized to WT: 1.10
- Foxo1 expression (Nanostring), normalized to WT: 1.03
- Foxp1 expression (Nanostring), normalized to WT: 1.25
- Foxp3 expression (Nanostring), normalized to WT: 1.22
- Frmd4b expression (Nanostring), normalized to WT: 1.28
- Fxd7 expression (Nanostring), normalized to WT: 0.72
- Gap43 expression (Nanostring), normalized to WT: 0.68
- Gem expression (Nanostring), normalized to WT: 0.73
- Gimap5 expression (Nanostring), normalized to WT: 1.58
- Gja1 expression (Nanostring), normalized to WT: 0.66
- Gmfg expression (Nanostring), normalized to WT: 0.76
- Grn expression (Nanostring), normalized to WT: 1.16
- Gusb expression (Nanostring), normalized to WT: 0.94
- Hip1r expression (Nanostring), normalized to WT: 0.89
- IL-33 expression (Nanostring), normalized to WT: 0.66
- Ifih1 expression (Nanostring), normalized to WT: 1.25
- Ifng expression (Nanostring), normalized to WT: 0.93
- Ikzf3 expression (Nanostring), normalized to WT: 1.06
- Il1r1 expression (Nanostring), normalized to WT: 1.36
- Il2ra expression (Nanostring), normalized to WT: 0.99
- Il3 expression (Nanostring), normalized to WT: 1.45
- Il4ra expression (Nanostring), normalized to WT: 1.13
- Il6st expression (Nanostring), normalized to WT: 0.89
- Il7r expression (Nanostring), normalized to WT: 1.37
- Il10 expression (Nanostring), normalized to WT: 1.01
- Il10ra expression (Nanostring), normalized to WT: 0.95
- Il12rb1 expression (Nanostring), normalized to WT: 0.80
- Il12rb2 expression (Nanostring), normalized to WT: 1.60
- Il17a expression (Nanostring), normalized to WT: 1.11
- Il17f expression (Nanostring), normalized to WT: 0.71
- Il21 expression (Nanostring), normalized to WT: 0.97
- Il23r expression (Nanostring), normalized to WT: 1.11
- Il27ra expression (Nanostring), normalized to WT: 1.55
- Inhba expression (Nanostring), normalized to WT: 0.81

Reference: US11427869B2, “T cell balance gene expression, compositions of matters and methods of use thereof” (THE BROAD INSTITUTE, INC., priority 2015, dated 2022)
